Reference: paper PMC6042386, “Molecular diversity and function of jasmintides from Jasminum sambac” (BMC Plant Biology, 2018)
Where a SMILES comes first, the peptide text is derived from it. Bridges are numbered along the chain shown (N, C = ends). [ ]: non-standard residue; d: D form. pGlu = O=C1CC[C@@H](C(=O)O)N1

How the values were obtained:
trypsin = experiment: Enzymatic stability assay, endopeptidase trypsin; assay type: in vitro ADME; conditions: 37 °C, manufacturer's buffer, up to 6 h, quenched with 1 M hydrochloric acid, UPLC peak area, MALDI-MS, three independent experiments, mean (n = 3), read-out: jS3 remaining intact with trypsin
Description: (§1) For the thermal stability assay, jS3 were heated in boiling water for 1 h. At each time interval (1.0 h), a 30-μL sample was aliquoted and quenched in an ice bath for 15 min. For the acid stability assay, jS3 and jS4 were incubated in hydrochloric acid (pH 2.0) for 6 h. At each time interval (2, 4 and 6 h), a 30-μL sample was aliquoted and quenched by adding 1 M sodium hydroxide. For the enzymatic stability assay, jS3 and jS4 were incubated for 6 h at the optimal temperature with a buffer solution, as recommended by the manufacturer. At each time interval (2, 4 and 6 h), a 30-μL sample was aliquoted and quenched by adding 1 M hydrochloric acid. For the serum stability assay, jS3 were incubated with 25% human AB-type male serum in phenol red-free Dulbecco’s modified Eagle’s medium at 37 °C for 24 h. At each time interval (4, 8, 12 and 24 h), a 30-μL sample was aliquoted and quenched with 96% ethanol. Samples were kept at 4 °C for 15 min and then centrifuged at 18,000 rpm for 10 min. For all stability assays, the reaction mixture was analyzed by UPLC and monitored by MALDI-MS. The areas under the peak prior to and after treatment were integrated to determine stability. For each stability assay, three independent experiments were performed. At each time point, the sample was quenched by the specific reagent aforementioned and analyzed by UPLC in triplicates.

[1] = Thermal stability assay (boiling water); assay type: physicochemical; conditions: boiling water (100 °C), quenched in ice bath 15 min, UPLC peak area before/after, monitored by MALDI-MS, three independent experiments, mean (n = 3), read-out: jasmintide remaining after thermal treatment
Description: as §1

T. molitor larvae = experiment: Effect of jasmintide on the growth of larvae; assay type: in vivo, Tenebrio molitor
Description: At day 0, 10 T. molitor larvae of similar weights (43 ± 2 mg and 47 ± 2 mg in the treatment and control sets, respectively) were fed 200 mg of a diet containing 1 mg of jS3/g of oats. Every three days, the weights of individual larva were recorded, and larvae were transferred to a new dish with the same amount of supplemented diet to maintain a continuous supply. Three independent biological experiments were carried out over a period of 9 days. The control diet was prepared in the same manner without the addition of jS3. Student’s t-test was used to compare the mean with the control.

insect Sf9 cells = experiment: Co-incubation of insect Sf9 cells with jS3 (morphology, mortality); assay type: cell-based; conditions: concentrations up to 100 μM, co-incubation (Figure S6)
carboxypeptidase A = experiment: Enzymatic stability assay, exopeptidase carboxypeptidase A; assay type: in vitro ADME; conditions: 37 °C, manufacturer's buffer, up to 6 h, quenched with 1 M hydrochloric acid, UPLC peak area, MALDI-MS, three independent experiments, mean (n = 3), read-out: jS3 remaining intact with carboxypeptidase A
Description: as §1

[2] = Human serum stability assay; assay type: in vitro ADME; conditions: 25% human AB-type serum; 25% human AB-type male serum in phenol red-free DMEM, 37 °C, up to 24 h; quenched with 96% ethanol; UPLC peak area, MALDI-MS; three independent experiments, mean (n = 3); read-out: jS3 remaining intact after incubation with human serum
Description: as §1

[3] = Acid stability assay (hydrochloric acid, pH 2.0); assay type: physicochemical; conditions: hydrochloric acid pH 2.0, 37 °C, up to 6 h; quenched with 1 M sodium hydroxide; UPLC peak area, MALDI-MS; three independent experiments, mean (n = 3); read-out: jasmintide remaining under acidic conditions
Description: as §1

[4] = test system: Tenebrio molitor mealworm larvae; experiment: Feeding deterrent no-choice assay; assay type: in vivo; conditions: 24 h, 29 ± 1 °C in the dark, 30 larvae per concentration
Description: The antifeedant activity was examined using a no-choice assay. Oat flakes were soaked in different concentrations of jS3 (0.5 to 30 mg/g of oat) and lyophilized. The control diet was prepared in the same manner without addition of jS3. Ten T. molitor larvae of similar weights (41 ± 3 mg) were placed in a tissue culture dish with 500 mg of oats. The dishes were transferred into a rearing chamber and kept at 29 ± 1 °C in the dark. After 24 h, the remaining oat flakes were weighed, and the amount consumed was calculated. In total, 30 larvae were used for each concentration, and three independent biological experiments were performed. The feeding deterrence activity was determined as follows: Feeding Deterrence IndexFDI=C−T∗100/C+T
where C represents the average weight of consumed control diet and T represents the average weight of consumed treatment diet within the groups. The overall differences in feeding amounts were compared to the control and were compared to each other using one-way ANOVA.

For CC[C@H](C)[C@H](NC(=O)[C@H](CC(N)=O)NC(=O)[C@@H]1CSSC[C@@H]2NC(=O)[C@H](CC(=O)O)NC(=O)[C@H](CCCNC(=N)N)NC(=O)[C@H](CO)NC(=O)[C@H]([C@@H](C)O)NC(=O)[C@H](CCC(N)=O)NC(=O)[C@@H]3CSSC[C@H](NC(=O)[C@H](C(C)C)NC(=O)[C@H]([C@@H](C)O)NC(=O)[C@H](Cc4c[nH]c5ccccc45)NC(=O)[C@H]([C@@H](C)CC)NC(=O)[C@H]([C@@H](C)CC)NC(=O)[C@H](Cc4ccc(O)cc4)NC(=O)[C@H](CC(N)=O)NC2=O)C(=O)N[C@@H](CCCNC(=N)N)C(=O)N[C@@H](CC(=O)O)C(=O)NCC(=O)N[C@@H](CSSC[C@H](NC(=O)[C@H](CC(C)C)NC(=O)[C@@H]2CCC(=O)N2)C(=O)N[C@@H](CC(C)C)C(=O)N[C@@H](CC(C)C)C(=O)N3)C(=O)N1)C(=O)N[C@@H](CO)C(=O)O [jS3] ([pGlu]LCLLCQTSRDCNYIIWTVCRDGCCNIS-OH; disulfide 3-24, 6-20, 12-25; C-terminus assumed), the remaining at 6 h (trypsin) was over 80%, the remaining at 1 h [1] was over 92% and the “average body weight of the treatment group after nine-day treatment” value (T. molitor larvae; after nine days on diet containing 1 mg of jS3 per gram of oat flakes, n = 30 larvae, significantly less than control (47.4 to 71.2 mg)) was 62.2 mg. The “average body weight of the treatment group, start” value (T. molitor larvae; day 0, diet containing 1 mg of jS3 per gram of oat flakes, n = 30 larvae) was 44.3 mg, the “fatality of larvae during the period of treatment” value (T. molitor larvae; nine-day treatment, 1 mg of jS3 per gram of oat flakes) was “No fatality” and the “change in morphology and mortality rate of Sf9 cells” value (insect Sf9 cells) was “insignificant effects”. For the same compound, the remaining at 6 h (carboxypeptidase A) was over 80%, the remaining at 24 h [2] was over 79% and the remaining at 6 h [3] was over 90%. The “feeding deterrence index (FDI)” value ([4]; 1 mg/g of jasmintide in the diet (oat flakes), three independent experiments) was 42.9% and the “feeding deterrence index (FDI)” value ([4]; 30 mg/g of jasmintide in the diet (oat flakes), highest value) was 93.6%.
